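These data come from cells grown in 96-well plates and exposed to compound for 48 hours at five concentrations. GI50: concentration for 50% inhibition of growth. TGI: total growth inhibition.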
Columns and labels:
Test in all cases: inhibition of tumour cell growth, NCI panel, 48 h; in the data active = GI50 below about 0.43 µM; inactive = the rest
786-0 renal = system: 786-0 renal
A498 renal = system: A498 renal
A549 NSCLC = system: A549 NSCLC
ACHN renal = system: ACHN renal
BT-549 breast = system: BT-549 breast
CAKI-1 renal = system: CAKI-1 renal
CCRF-CEM leukemia = system: CCRF-CEM leukemia
COLO 205 colon = system: COLO 205 colon
DU-145 prostate = system: DU-145 prostate
HCC-2998 colon = system: HCC-2998 colon
HCT-116 colon = system: HCT-116 colon
HCT-15 colon = system: HCT-15 colon
HL-60(TB) leukemia = system: HL-60(TB) leukemia
HOP-62 NSCLC = system: HOP-62 NSCLC
HS 578T breast = system: HS 578T breast
HT29 colon = system: HT29 colon
IGROV1 ovarian = system: IGROV1 ovarian
K-562 leukemia = system: K-562 leukemia
KM12 colon = system: KM12 colon
M14 melanoma = system: M14 melanoma
MALME-3M melanoma = system: MALME-3M melanoma
MCF7 breast = system: MCF7 breast
MDA-MB-231 breast = system: MDA-MB-231 breast
MDA-MB-435 = system: MDA-MB-435
MOLT-4 leukemia = system: MOLT-4 leukemia
NCI-H226 lung = system: NCI-H226 lung
NCI-H23 lung = system: NCI-H23 lung
NCI-H460 lung = system: NCI-H460 lung
NCI-H522 lung = system: NCI-H522 lung
NCI/ADR-RES ovarian = system: NCI/ADR-RES ovarian
OVCAR-3 ovarian = system: OVCAR-3 ovarian
OVCAR-4 ovarian = system: OVCAR-4 ovarian
OVCAR-5 ovarian = system: OVCAR-5 ovarian
OVCAR-8 ovarian = system: OVCAR-8 ovarian
PC-3 prostate = system: PC-3 prostate
RPMI-8226 leukemia = system: RPMI-8226 leukemia
RXF 393 renal = system: RXF 393 renal
SF-268 CNS = system: SF-268 CNS
SF-295 CNS = system: SF-295 CNS
SF-539 CNS = system: SF-539 CNS
SK-MEL-28 melanoma = system: SK-MEL-28 melanoma
SK-MEL-5 melanoma = system: SK-MEL-5 melanoma
SK-OV-3 ovarian = system: SK-OV-3 ovarian
SN12C renal = system: SN12C renal
SNB-19 CNS = system: SNB-19 CNS
SNB-75 CNS = system: SNB-75 CNS
SR leukemia = system: SR leukemia
SW-620 colon = system: SW-620 colon
T-47D breast = system: T-47D breast
TK-10 renal = system: TK-10 renal
UACC-257 melanoma = system: UACC-257 melanoma
UACC-62 melanoma = system: UACC-62 melanoma
UO-31 renal = system: UO-31 renal
EKVX NSCLC = system: EKVX NSCLC
HOP-92 NSCLC = system: HOP-92 NSCLC
LOX IMVI melanoma = system: LOX IMVI melanoma
SK-MEL-2 melanoma = system: SK-MEL-2 melanoma
U251 CNS = system: U251 CNS

Cc1onc(-c2c(F)cccc2Cl)c1-c1ncc(-c2ccc(Cl)cc2)o1
77.6 µM: TGI (SNB-75 CNS)
31.3 µM: TGI (SR leukemia)
> 100 µM: TGI (786-0 renal) | TGI (A498 renal) | TGI (A549 NSCLC) | TGI (ACHN renal) | TGI (BT-549 breast) | TGI (CAKI-1 renal) | TGI (CCRF-CEM leukemia) | TGI (COLO 205 colon) | TGI (DU-145 prostate) | TGI (HCC-2998 colon) | TGI (HCT-116 colon) | TGI (HCT-15 colon) | TGI (HL-60(TB) leukemia) | TGI (HOP-62 NSCLC) | TGI (HS 578T breast) | TGI (HT29 colon) | TGI (IGROV1 ovarian) | TGI (K-562 leukemia) | TGI (KM12 colon) | TGI (M14 melanoma) | TGI (MALME-3M melanoma) | TGI (MCF7 breast) | TGI (MDA-MB-231 breast) | TGI (MDA-MB-435) | TGI (MOLT-4 leukemia) | TGI (NCI-H226 lung) | TGI (NCI-H23 lung) | TGI (NCI-H460 lung) | TGI (NCI-H522 lung) | TGI (NCI/ADR-RES ovarian) | TGI (OVCAR-3 ovarian) | TGI (OVCAR-4 ovarian) | TGI (OVCAR-5 ovarian) | TGI (OVCAR-8 ovarian) | TGI (PC-3 prostate) | TGI (SF-268 CNS) | TGI (SF-295 CNS) | TGI (SF-539 CNS) | TGI (SK-MEL-28 melanoma) | TGI (SK-OV-3 ovarian) | TGI (SN12C renal) | TGI (SNB-19 CNS) | TGI (SW-620 colon) | TGI (T-47D breast) | TGI (TK-10 renal) | TGI (UACC-257 melanoma) | TGI (UACC-62 melanoma) | TGI (UO-31 renal)
8.33 µM: TGI (SK-MEL-5 melanoma)
90.7 µM: TGI (RXF 393 renal)
44.9 µM: TGI (RPMI-8226 leukemia)
inactive: GI50 (786-0 renal) 5.14 µM | GI50 (A498 renal) 5.09 µM | GI50 (A549 NSCLC) 4.34 µM | GI50 (ACHN renal) 5.15 µM | GI50 (BT-549 breast) 6.5 µM | GI50 (CAKI-1 renal) 4.7 µM | GI50 (CCRF-CEM leukemia) 3.81 µM | GI50 (COLO 205 colon) 4.11 µM | GI50 (DU-145 prostate) 14.6 µM | GI50 (HCC-2998 colon) 5.95 µM | GI50 (HCT-116 colon) 2.76 µM | GI50 (HCT-15 colon) 2.89 µM | GI50 (HL-60(TB) leukemia) 4.02 µM | GI50 (HOP-62 NSCLC) 8.45 µM | GI50 (HS 578T breast) 14.1 µM | GI50 (HT29 colon) 3.89 µM | GI50 (IGROV1 ovarian) 6.44 µM | GI50 (K-562 leukemia) 4.35 µM | GI50 (KM12 colon) 5.59 µM | GI50 (M14 melanoma) 5.67 µM | GI50 (MALME-3M melanoma) 6.43 µM | GI50 (MCF7 breast) 4.49 µM | GI50 (MDA-MB-231 breast) 6.5 µM | GI50 (MDA-MB-435) 5.59 µM | GI50 (MOLT-4 leukemia) 4.61 µM | GI50 (NCI-H226 lung) 5.93 µM | GI50 (NCI-H23 lung) 5.04 µM | GI50 (NCI-H460 lung) 3.18 µM | GI50 (NCI-H522 lung) 3.79 µM | GI50 (NCI/ADR-RES ovarian) 5.08 µM | GI50 (OVCAR-3 ovarian) 8.84 µM | GI50 (OVCAR-4 ovarian) 13.9 µM | GI50 (OVCAR-5 ovarian) 74.4 µM | GI50 (OVCAR-8 ovarian) 4.69 µM | GI50 (PC-3 prostate) 4.21 µM | GI50 (RPMI-8226 leukemia) 2.77 µM | GI50 (RXF 393 renal) 6.45 µM | GI50 (SF-268 CNS) 7.3 µM | GI50 (SF-295 CNS) 8.66 µM | GI50 (SF-539 CNS) 5.07 µM | GI50 (SK-MEL-28 melanoma) 6.26 µM | GI50 (SK-MEL-5 melanoma) 2.55 µM | GI50 (SK-OV-3 ovarian) 9.33 µM | GI50 (SN12C renal) 5.34 µM | GI50 (SNB-19 CNS) 6.59 µM | GI50 (SNB-75 CNS) 12.1 µM | GI50 (SR leukemia) 2.92 µM | GI50 (SW-620 colon) 4.35 µM | GI50 (T-47D breast) 3.48 µM | GI50 (TK-10 renal) 8.33 µM | GI50 (UACC-257 melanoma) 3.25 µM | GI50 (UACC-62 melanoma) 2.7 µM | GI50 (UO-31 renal) 5.47 µM

CN1CCN(c2ccc(-c3ccc4ncc(C#N)c(Nc5ccc(F)c(Cl)c5)c4c3)cc2)CC1
5.54 µM: TGI (RXF 393 renal)
2.72 µM: TGI (ACHN renal)
34.3 µM: TGI (NCI-H226 lung)
18.8 µM: TGI (TK-10 renal)
14.9 µM: TGI (MCF7 breast)
5.53 µM: TGI (MOLT-4 leukemia)
28.5 µM: TGI (MDA-MB-231 breast)
6.13 µM: TGI (UO-31 renal)
41.2 µM: TGI (EKVX NSCLC)
8.32 µM: TGI (HT29 colon)
19.6 µM: TGI (SN12C renal)
25.5 µM: TGI (OVCAR-5 ovarian)
4.45 µM: TGI (HL-60(TB) leukemia)
5.5 µM: TGI (RPMI-8226 leukemia)
7.55 µM: TGI (HOP-62 NSCLC)
inactive: GI50 (A498 renal) 2.43 µM | GI50 (A549 NSCLC) 2.63 µM | GI50 (ACHN renal) 0.491 µM | GI50 (BT-549 breast) 3.77 µM | GI50 (CAKI-1 renal) 1.01 µM | GI50 (CCRF-CEM leukemia) 2.2 µM | GI50 (COLO 205 colon) 1.92 µM | GI50 (DU-145 prostate) 0.872 µM | GI50 (EKVX NSCLC) 0.838 µM | GI50 (HCC-2998 colon) 3.26 µM | GI50 (HCT-15 colon) 1.05 µM | GI50 (HL-60(TB) leukemia) 1.68 µM | GI50 (HOP-62 NSCLC) 2.22 µM | GI50 (HOP-92 NSCLC) 3.47 µM | GI50 (HS 578T breast) 2.55 µM | GI50 (HT29 colon) 2.33 µM | GI50 (KM12 colon) 4.47 µM | GI50 (LOX IMVI melanoma) 2.78 µM | GI50 (MALME-3M melanoma) 1.74 µM | GI50 (MCF7 breast) 3.18 µM | GI50 (MDA-MB-231 breast) 6 µM | GI50 (MDA-MB-435) 1.89 µM | GI50 (MOLT-4 leukemia) 1.97 µM | GI50 (NCI-H226 lung) 10.2 µM | GI50 (NCI-H23 lung) 10.1 µM | GI50 (NCI-H460 lung) 2.05 µM | GI50 (NCI-H522 lung) 1.15 µM | GI50 (NCI/ADR-RES ovarian) 4.57 µM | GI50 (OVCAR-3 ovarian) 1.72 µM | GI50 (OVCAR-4 ovarian) 3.18 µM | GI50 (OVCAR-5 ovarian) 4.74 µM | GI50 (OVCAR-8 ovarian) 2.74 µM | GI50 (PC-3 prostate) 2.08 µM | GI50 (RPMI-8226 leukemia) 1.92 µM | GI50 (RXF 393 renal) 1.62 µM | GI50 (SF-268 CNS) 2.87 µM | GI50 (SF-295 CNS) 1.82 µM | GI50 (SF-539 CNS) 1.86 µM | GI50 (SK-MEL-2 melanoma) 2.3 µM | GI50 (SK-MEL-28 melanoma) 1.79 µM | GI50 (SK-MEL-5 melanoma) 2.19 µM | GI50 (SK-OV-3 ovarian) 2.9 µM | GI50 (SN12C renal) 3.04 µM | GI50 (SNB-19 CNS) 3.36 µM | GI50 (SNB-75 CNS) 2.33 µM | GI50 (SR leukemia) 2.01 µM | GI50 (SW-620 colon) 2.81 µM | GI50 (T-47D breast) 1.93 µM | GI50 (TK-10 renal) 0.484 µM | GI50 (U251 CNS) 2.3 µM | GI50 (UACC-62 melanoma) 1.87 µM | GI50 (UO-31 renal) 0.895 µM
5.43 µM: TGI (SK-MEL-5 melanoma)
4.04 µM: TGI (MALME-3M melanoma)
15.8 µM: TGI (HCC-2998 colon)
10.5 µM: TGI (IGROV1 ovarian)
6.25 µM: TGI (OVCAR-3 ovarian)
6.72 µM: TGI (SK-MEL-2 melanoma)
6.67 µM: TGI (NCI-H460 lung)
27.9 µM: TGI (NCI/ADR-RES ovarian)
15.1 µM: TGI (SK-OV-3 ovarian)
3.01 µM: TGI (CAKI-1 renal)
4.07 µM: TGI (SF-539 CNS)
9.88 µM: TGI (HS 578T breast)
3.68 µM: TGI (MDA-MB-435)
18.4 µM: TGI (KM12 colon)
25.6 µM: TGI (OVCAR-4 ovarian)
3.62 µM: TGI (HCT-15 colon)
7.92 µM: TGI (PC-3 prostate)
3.66 µM: TGI (SK-MEL-28 melanoma)
3.75 µM: TGI (UACC-62 melanoma)
4.99 µM: TGI (COLO 205 colon)
6.52 µM: TGI (CCRF-CEM leukemia)
7.47 µM: TGI (U251 CNS)
4.02 µM: TGI (NCI-H522 lung)
6.82 µM: TGI (SR leukemia)
active: GI50 (IGROV1 ovarian) 0.321 µM
19.2 µM: TGI (SNB-19 CNS)
4.11 µM: TGI (DU-145 prostate)
11.5 µM: TGI (LOX IMVI melanoma)
17.9 µM: TGI (BT-549 breast)
41.5 µM: TGI (NCI-H23 lung)
7.15 µM: TGI (T-47D breast)
3.61 µM: TGI (SF-295 CNS)
28.4 µM: TGI (HOP-92 NSCLC)
26.6 µM: TGI (A549 NSCLC)
12.4 µM: TGI (A498 renal)
14.5 µM: TGI (OVCAR-8 ovarian) | TGI (SW-620 colon)
15.9 µM: TGI (SF-268 CNS) | TGI (SNB-75 CNS)

Source: PubChem BioAssay (NCI)
